pIC50: −log10 of the molar value. Read-outs that look alike come from different tables or passages of the source.
Key:
SMN2 = test: Splicing RT-qPCR panel, SMN2 canonical junction (CJ) mRNA; assay type: cell-based, human; conditions: read-out: SMN2 IC50 (decrease in CJ mRNA levels)
Outline: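 A673 or K562 cells were treated 24 h at 37 °C with an 11-point 3-fold dilution series (top 10 uM final, DMSO ≤0.25%). Lysates underwent one-step RT-qPCR for canonical (CJ) and alternative (AJ) junctions; Ct normalized to GAPDH, GUSB or PPIA and DMSO control via 2^(−ΔΔCt), expressed as percentage response.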

[1] = system: MDCK-BCRP or MDCKII-MDR1 cells; test: Transwell assay for membrane efflux and permeability; assay type: in vitro ADME, Canine; conditions: test compound 1 μM, 2 hours at 37° C.
Excerpt: (§1) Compounds described herein were screened for cell membrane permeability and efflux in a transwell assay using Madin-Darby Canine Kidney (MDCK) cells expressing Breast Cancer Resistance Protein (BCRP) or subclone MDCKII cells expressing Multidrug Resistance Protein 1 (MDR1).
(§2) MDCK-BCRP or MDCKII-MDR1 Cells: The Netherlands Cancer Institute, High Glucose Dulbecco's Modified Eagle's Medium (DMEM): Gibco/Thermo Fisher Scientific, Fetal Bovine Serum (FBS): Coming, Hank's Balanced Salt Solution (HBSS) and Trypsin/EDTA: Gibco/Thermo Fisher Scientific, HTS Transwell-96 Well Permeable Supports: Coming Corporation, Millicell Epithelial Volt-Ohm: Millipore, Cellometer® Vision: Nexcelom Bioscience LLC, Infinite 200 PRO microplate reader: Tecan, MTS2/4 orbital shaker: IKA Labortechnik, HEPES/Penicillin/Streptomycin: Solarbio.
(§3) MDCK-BCRP or MDCKII-MDR1 cells were seeded to each of the wells of the transwell plate at a density of 1.6×10^6 cells/mL and the plate was incubated for 4-8 days with medium changes every two days. To perform the drug transport assay, cell monolayers were first washed three times with pre-warmed HBSS and then incubated with gentle shaking (150 rpm) for 30 min at 37° C. Stock solutions of test compounds (e.g., exemplary compounds of Formulas (I), (II), and (III)) and control compounds (e.g., metoprolol, prazosin, and/or imatinib) were prepared in DMSO and adjusted to a working solution using HBSS. The final concentration of test compounds was 1 μM with DMSO; 0.5%. The plates were incubated at 37° C. for 2 hours.

[2] = as above; assay type: in vitro ADME, Canine; conditions: dog; MDCK-BCRP or MDCKII-MDR1 transwell, test compound 1 μM, 2 hours at 37° C.
Excerpt: as §1, §2, §3

[3] = Homo sapiens, RT-qPCR panel, canonical junction mRNA, compound concentration having 50% response in CJ decrease
[4] = Homo sapiens, gene panel, CJ qPCR, protocol of Example 142

Compound	pIC50 (SMN2; [3])	Permeability (Papp) [1]	efflux ratio at 2 h, 1 μM [2]	pIC50 (SMN2; RT-qPCR panel, canonical junction mRNA, compound concentration having 50% response in CJ decrease)	Efflux Ratio [1]	Papp at 2 h, 1 μM [2] [×10⁻⁶ cm/s]	pIC50 (SMN2; [4])
Fc1cc(-c2ccc(OC3CC4CC(F)(F)C(C3)N4)nn2)c2[nH]ncc2c1-c1cn[nH]c1 (stereo not drawn) [Compound 313, 7-[6-({6,6-difluoro-8-azabicyclo[3.2.1]octan-3-yl}oxy)pyridazin-3-yl]-5-fluoro-4-(1H-pyrazol-4-yl)-1H-indazole]	> 7.00	C (C represents a Papp greater than 6×10^−6 cm S^−1)	< 1.5				
CN(c1ccc(-c2ccc(-c3cn[nH]c3)c3ncsc23)nn1)[C@H]1C[C@H]2COC[C@@H](C1)N2 [Compound 356, (endo)-N-methyl-N-{6-[4-(1H-pyrazol-4-yl)-1,3-benzothiazol-7-yl]pyridazin-3-yl}-3-oxa-9-azabicyclo[3.3.1]nonan-7-amine]		A (A represents a Papp <2×10^−6 cm s^−1)		> 7.00	C (C represents a ratio greater than 5)		
COc1cc(-c2ccc(-c3ccc(O[C@@H]4C[C@H]5CC[C@@H](C4)N5)nn3)c3scnc23)cnn1 [Compound 362]	> 7.00		> 5			2 to 6	
Fc1ccn(-c2ccc(-c3ccc(O[C@@H]4C[C@H]5CC[C@@H](C4)N5)nn3)c3scnc23)n1 [Compound 363]	> 7.00		1.5 to 5			< 2	
CN(c1ncc(-c2ccc(-n3cccn3)c3[nH]ncc23)nn1)[C@@H]1C[C@H]2CCC[C@@H](C1)N2 [Compound 551]	> 7.00		> 5			2 to 6	
c1cnn(-c2ccc(-c3cnc(N[C@@H]4C[C@H]5CC[C@@H](C4)N5)nn3)c3cn[nH]c23)c1 [Compound 556]	6.00 to 7.00		> 5			2 to 6	
c1cnn(-c2ccc(-c3cnc(N[C@@H]4C[C@H]5CCC[C@@H](C4)N5)nn3)c3cn[nH]c23)c1 [Compound 561]	6.00 to 7.00		> 5			2 to 6	
CC(C)(C)C1CN(c2ncc(-c3ccc(-n4cccn4)c4[nH]ncc34)nn2)CCN1 (stereo not drawn) [Compound 572]	6.00 to 7.00		< 1.5			< 2	
CN(c1ncc(-c2ccc(-n3cncn3)c3[nH]ncc23)nn1)[C@@H]1C[C@H]2CCC[C@@H](C1)N2 [Compound 574]	> 7.00		> 5			< 2	
CN(c1ncc(-c2ccc(-n3ccnn3)c3[nH]ncc23)nn1)[C@@H]1C[C@H]2CCC[C@@H](C1)N2 [Compound 576]	6.00 to 7.00		> 5			< 2	
Cc1ncc(-c2ccc(-c3cnc(N(C)[C@@H]4C[C@H]5CCC[C@@H](C4)N5)nn3)c3scnc23)s1 [Compound 578]	> 7.00		> 5			< 2	
Cc1nc(-c2ccc(-c3cnc(N(C)[C@@H]4C[C@H]5CCC[C@@H](C4)N5)nn3)c3scnc23)cs1 [Compound 579]	6.00 to 7.00		> 5			< 2	
Cc1cc(-c2ccc(-c3cnc(N(C)[C@@H]4C[C@H]5CCC[C@@H](C4)N5)nn3)c3scnc23)sn1 [Compound 580]	> 7.00		> 5			< 2	
CC(C)(C)[C@H]1CN(c2ncc(-c3ccc(-n4cccn4)c4[nH]ncc34)nn2)CCN1 [Compound 581]	6.00 to 7.00		< 1.5			2 to 6	
COc1nc(-c2ccc(N(C)[C@@H]3C[C@H]4CC[C@@H](C3)N4)nn2)ccc1-c1cn[nH]c1 [Compound 906]			> 5			< 2	> 7.00
CN(c1ccc(-c2ccc(-c3cn[nH]c3)cn2)nn1)[C@@H]1C[C@H]2CC[C@@H](C1)N2 [Compound 915]			< 1.5			< 2	< 5.00
COc1nc(-c2ccc(OC3CC(C)(C)NC(C)(C)C3)nn2)ccc1-c1cn[nH]c1 [Compound 917]			> 5			2 to 6	> 7.00

Compound	pIC50 (SMN2; [3])	Permeability (Papp) [1]	efflux ratio at 2 h, 1 μM [2]	pIC50 (SMN2; RT-qPCR panel, canonical junction mRNA, compound concentration having 50% response in CJ decrease)	Efflux Ratio [1]	Papp at 2 h, 1 μM [2] [×10⁻⁶ cm/s]	pIC50 (SMN2; [4])
COc1nc(-c2ccc(OC3CC(C)(C)NC(C)(C)C3)nn2)ccc1-c1cnn(C)c1 [Compound 918]			> 5			2 to 6	> 7.00
COc1nc(-c2ccc(N(C)C3CC(C)(C)NC(C)(C)C3)nn2)ccc1-c1cn[nH]c1 [Compound 919]			> 5			< 2	> 7.00
COc1nc(-c2ccc(N(C)C3CC(C)(C)NC(C)(C)C3)nn2)ccc1-c1cnn(C)c1 [Compound 920]			> 5			2 to 6	> 7.00
CN(c1ccc(-c2ccc(-c3cn[nH]c3)c(F)n2)nn1)[C@@H]1C[C@H]2CC[C@@H](C1)N2 [Compound 922]			> 5			< 2	> 7.00
CN(c1ccc(-c2ccc(-c3cn[nH]c3)c(C#N)n2)nn1)[C@@H]1C[C@H]2CC[C@@H](C1)N2 [Compound 930]			> 5			< 2	> 7.00
COc1nc(-c2ccc(N(C)[C@@H]3C[C@H]4CC[C@@H](C3)N4)nn2)cc(F)c1-c1cn[nH]c1 [Compound 931]			> 5			< 2	> 7.00
CN(c1ccc(-c2ccc(-c3cn[nH]c3)c(OC3CC3)n2)nn1)[C@@H]1C[C@H]2CC[C@@H](C1)N2 [Compound 939]			> 5			< 2	> 7.00
COc1cc(-c2ccc(-c3ccc(N(C)[C@@H]4C[C@H]5CC[C@@H](C4)N5)nn3)nc2OC)ncn1 [Compound 954]			> 5			< 2	6.00 to 7.00
CN(c1ccc(-c2ccc(-c3cn[nH]c3)c(OC(F)F)n2)nn1)[C@@H]1C[C@H]2CC[C@@H](C1)N2 [Compound 955]			> 5			< 2	> 7.00
COc1nc(-c2ccc(N3CCC(NC(C)(C)C)C3)nn2)ccc1-c1cn[nH]c1 (stereo not drawn) [Compound 956]			> 5			2 to 6	> 7.00
COc1nc(-c2ccc(N(C)[C@@H]3C[C@H]4CC[C@@H](C3)N4)nn2)ccc1-c1ccnc(O)c1 [Compound 961]			1.5 to 5			< 2	6.00 to 7.00
COc1nc(-c2ccc(O[C@@H]3C[C@H]4CC[C@@H](C3)N4)nn2)ccc1-c1cnc(C)s1 [Compound 962]			1.5 to 5			2 to 6	6.00 to 7.00
COc1nc(-c2ccc(OC3CC(C)(C)NC(C)(C)C3)nn2)cc(F)c1-c1cn[nH]c1 [Compound 965]			> 5			2 to 6	> 7.00
CCOc1nc(-c2ccc(OC3CC(C)(C)NC(C)(C)C3)nn2)cc(F)c1-c1cn[nH]c1 [Compound 966]			> 5			2 to 6	> 7.00
CCOc1nc(-c2ccc(OC3CC(C)(C)NC(C)(C)C3)nn2)ccc1-c1cn[nH]c1 [Compound 967]			1.5 to 5			2 to 6	> 7.00
COc1nc(-c2ccc(OC3CC4CC(F)(F)C(C3)N4)nn2)cc(F)c1-c1cn[nH]c1 (stereo not drawn) [Compound 969]			> 5			2 to 6	5.00 to 6.00

From US20240368163A1, “COMPOUNDS AND METHODS FOR MODULATING SPLICING” (REMIX THERAPEUTICS INC., priority 2021, published 2024)
